Source: the NIST ThermoML archive (doi:10.1016/j.fluid.2015.10.001)
“And” between values parts separate entries of the source, which are not always exact repeats. Equal values may be shown once.

Experiments:
[1] = Crystal; for vapor or sublimation pressure: Transpiration method; for Normal melting temperature: DTA
[2] = Molar enthalpy of transition or fusion; settings: Crystal; DSC

O=C(O)c1ccccc1F [2-fluorobenzoic acid]
[1]
Settings	vapor or sublimation pressure [kPa]
333.9 K	0.00321
334.6 K	0.0035
335.9 K	0.00389
337 K	0.00451
338.9 K	0.00528
340.2 K	0.00614
342 K	0.00738
342.2 K	0.00734
345 K	0.0094
346.6 K	0.01115
348.3 K	0.0132
351.2 K	0.01709
352.4 K	0.01997
353.2 K	0.02087
354.2 K	0.02242
356.5 K	0.02903
358.2 K	0.03398
358.3 K	0.0322
360.5 K	0.03997
361.3 K	0.04428
363.4 K	0.05001
364.5 K	0.05529
367.2 K	0.07204

Settings	Molar enthalpy of transition or fusion [kcal/mol]	Normal melting temperature [°C]
[1]	–	123.6
[2]	4.85	–

O=C(O)c1ccccc1I [2-iodobenzoic acid]
[1]
Settings	vapor or sublimation pressure
362.4 K	0.00113 kPa
367.6 K	0.00188 kPa
376.2 K	0.00432 kPa
381.9 K	0.00744 kPa
386.9 K	0.01099 kPa
393.2 K	0.02004 kPa and 0.01875 kPa
397.2 K	0.02759 kPa
399.2 K	0.03193 kPa
403.2 K	0.0431 kPa and 0.04492 kPa
407.3 K	0.06078 kPa
411.5 K	0.08737 kPa

Settings	Molar enthalpy of transition or fusion [kcal/mol]	Normal melting temperature [°C]
[1]	–	161.4
[2]	6.6	–

O=C(O)c1cccc(F)c1 [3-fluorobenzoic acid]
[1]
Settings	vapor or sublimation pressure [kPa]
331.9 K	0.00407
334.9 K	0.00564
338 K	0.00734
342.1 K	0.01139
345 K	0.01472
347.1 K	0.01783
350.4 K	0.02353
353.3 K	0.03091
356.5 K	0.04119
359.5 K	0.0543
362.6 K	0.06845

Settings	Molar enthalpy of transition or fusion [kcal/mol]	Normal melting temperature [°C]
[1]	–	122.8
[2]	4.42	–

O=C(O)c1cccc(I)c1 [3-iodobenzoic acid]
[1]
Settings	vapor or sublimation pressure [kPa]
366.6 K	0.00121
370.4 K	0.00171
375.8 K	0.00281
380.8 K	0.00438
386 K	0.00688
389.1 K	0.00894
391.9 K	0.01174
395.1 K	0.01521
399.2 K	0.02068
404.1 K	0.03146
404.2 K	0.03145
409 K	0.04684
411.4 K	0.05339
414.2 K	0.06461
417.5 K	0.08451
422 K	0.1194

Settings	Molar enthalpy of transition or fusion [kcal/mol]	Normal melting temperature [°C]
[1]	–	185.8
[2]	6.62	–

O=C(O)c1ccc(F)cc1 [4-fluorobenzoic acid]
[1]
Settings	vapor or sublimation pressure [kPa]
343 K	0.00456
346.2 K	0.00612
349.3 K	0.00844
355.1 K	0.01384
356.5 K	0.01539
359.5 K	0.02097
363.7 K	0.02861
365.6 K	0.03441
366.9 K	0.03729
371.8 K	0.05523
375.8 K	0.07688
380.9 K	0.1162
385.2 K	0.1594
386.2 K	0.1701

Settings	Molar enthalpy of transition or fusion [kcal/mol]	Normal melting temperature [°C]
[1]	–	183.0
[2]	5.16	–

O=C(O)c1ccc(I)cc1 [4-iodobenzoic acid]
[1]
Settings	vapor or sublimation pressure [kPa]
388.9 K	0.00205
391.1 K	0.00244
403.3 K	0.00654
409.4 K	0.01081
415.3 K	0.01743
421.5 K	0.02673
424.5 K	0.03413
427.4 K	0.04118
433.5 K	0.06312

Settings	Molar enthalpy of transition or fusion [kcal/mol]	Normal melting temperature [°C]
[1]	–	270.8
[2]	8.05	–
